The values that follow come from patent US12115170B2, “Compositions and methods of clostridiodides difficile treatment, decolonization, and prevention” (Wisconsin Alumni Research Foundation, priority 2021, dated 2024).

Structures are written as SMILES. ≈ marks a conversion by molar mass, not a printed value. Where two headings read alike, the source gives them in different places.

The test system of data set [1] is C. difficile ATCC 700057 (VPI 11186). As to the kind of experiment: MIC by broth microdilution, control strain ATCC 700057. It is filed as cell-based, Clostridioides difficile. The procedure: (§1) Susceptibility testing: The minimum inhibitory concentration (MIC), defined as the lowest concentration of an antimicrobial that will inhibit the visible growth of a microorganism, was determined for all isolates. […] Microwell plates containing omadacycline and BHI were used on the same day as their creation, and all media were reduced for 24 h prior. Media used to inoculate plates were created by suspending 24-h colonies in BHI to a McFarland standard of 0.5, which was added to each well, sufficient to about 1×10^6 CFU/ml. A total volume of […] was used, and plates were read after 24 h of incubation in the anaerobic hood. The lowest concentration without growth was determined to be the MIC. In accordance with CLSI recommendations, C. difficile ATCC 700057 was used as a control for each plate.
(In general: Broth dilution looks for growth in wells or tubes with falling amounts of substance.)

Data set [2] deals with C. difficile 4118 (ATCC 1870). The data set can be described thus: MIC by broth microdilution, ATCC 1870. It is filed as cell-based. To be noted: Clostridioides difficile. The procedure:
as §1

The subject of data set [3] is C. difficile ICCD 0715 (clinical strain). The data set can be described thus: MIC by broth microdilution, ICCD 0715. The class given is cell-based. To be noted: Clostridioides difficile, 24 h. The procedure: as §1
Data set [4] relates to C. difficile VPI 10463 (ATCC 43255). As to the kind of experiment: MIC by broth microdilution, VPI 10463. The class given is cell-based. To be noted: Clostridioides difficile. The procedure:
as §1

Data set [5] deals with C. difficile 630 (ATCC BAA-1382). The data set can be described thus: MIC by broth microdilution, 630. It is filed as cell-based. To be noted: Clostridioides difficile. How it is done: as §1
The test system of data set [6] is C. difficile strains used in this study. The data set can be described thus: MIC by broth microdilution, range over the strains used in this study. The class given is cell-based. To be noted: Clostridioides difficile, read-out: MICs. The procedure: as §1
Data set [7] has as its system C. difficile spores (four strains tested). As to the kind of experiment: Time-kill curves, S-CFU, four strains tested. It is filed as cell-based, Clostridioides difficile.
For data set [8], the system named is C. difficile ATCC 1870 vegetative cells. The data set can be described thus: Time-kill curves, T-CFU versus S-CFU, ATCC 1870. It is filed as cell-based, Clostridioides difficile.
In data set [9] the test system is C. difficile VPI 10463. The data set can be described thus: CDI murine model, severe model. The class given is in vivo, C57BL/6 mice.
Data set [10] relates to C. difficile VPI 10463. As to the kind of experiment: CDI murine model, non-severe model. It is filed as in vivo, C57BL/6 mice.
The conditions of data set [11]: cited from earlier work; for Fecal concentration: clinical dosing, oral.
Data set [12] concerns C. difficile spores (all strains). As to the kind of experiment: Spore washing and germination, all strains. To be noted: 0.5 mg/ml docusate exposure.
Setting [13] is: ATCC 700057 (VPI 11186), R038, reduced BHI, 24 h, highest of replicates.
[14] abbreviates: non-severe model, environmental contamination.

As to `CN(C)c1cc(CNCC(C)(C)C)c(O)c2c1C[C@H]1C[C@H]3[C@H](N(C)C)C(O)=C(C(N)=O)C(=O)[C@@]3(O)C(O)=C1C2=O` [Omadacycline, omadacycline], the MIC in [1] (setting [13]) is 0.125 µg/mL (≈ 0.225 µM); in data set [1] (Clostridioides difficile, ATCC700057, ATCC 700057 (VPI 11186), R038, reduced BHI, 24 h, highest of replicates, read-out: MIC), 0.125 µg/mL (≈ 0.225 µM); in [2] (ATCC1870, 4118 (ATCC 1870), R027, reduced BHI, 24 h, read-out: MIC), 0.031 µg/mL (≈ 0.0557 µM); in data set [3] (ICCD 0715 (clinical strain), R027, reduced BHI, read-out: MIC), 0.031 µg/mL (≈ 0.0557 µM); in data set [4] (ATCC43255, VP1 10463 (ATCC 43255), R087, reduced BHI, 24 h, read-out: MIC) it was 0.063 µg/mL (≈ 0.113 µM); in data set [5] (ATCCBAA1382, 630 (ATCC BAA-1382), R012, reduced BHI, 24 h, read-out: MIC), 0.125 µg/mL (≈ 0.225 µM). The MIC in data set [6] (range for the strains used in this study) lay within 0.031 to 0.125 µg/mL (≈ 0.0557 to 0.225 µM). The “Effect on S-CFU” value in [7] (antibiotic in BHI without germinants, throughout the treatment period (96 h), four strains) is given as “did not affect S-CFU”. Moreover, the “Killing of vegetative cells (T-CFU equaled S-CFU)” value in [8] (ATCC 1870, 24 to 96 h, with or without germinants) is listed as “effective at killing vegetative cells”. Further, the “Toxin amounts, day 1” value in [9] (mouse, in vivo) is given as “similar”. The “Day 15 survival” value in [9] (severe model, treatment started 30 hours after spore gavage, once daily until day 5, OMC 0.25 mg, VAN 1.5 mg oral gavage) turned out to be 60%. The “Mice succumbed to rCDI” value in data set [10] (by day 10) was found to be 20%. In addition, the “Final survival, survivors/total mice” value in data set [10] (mouse, in vivo) is reported as 6/10. Further, the Mortality in data set [10] (mouse, in vivo) came out at 40%. Also, the “Mice positive for C. difficile spores (spore shedding), day 15” value in data set [10] (non-severe model) stood at 60%. Further, the Final survival in [10] (non-severe model, after clindamycin-induced relapse (days 10-12)) worked out at 60%. Besides, the “Positive cage swab rate, day 10” value in [10] (setting [14]) is listed as 8.3%. In addition, in data set [10] (setting [14]), the “Positive cage swabs, day 13” value was “no positive swabs”. Moreover, in data set [11], the Fecal concentration entry is “approximately 430 mg/liter”. The Fecal excretion in [11] (in vivo) is reported as 81%.
In the case of `CN[C@H](CC(C)C)C(=O)N[C@H]1C(=O)N[C@@H](CC(N)=O)C(=O)N[C@H]2C(=O)N[C@H]3C(=O)N[C@H](C(=O)N[C@H](C(=O)O)c4cc(O)cc(O)c4-c4cc3ccc4O)[C@H](O)c3ccc(c(Cl)c3)Oc3cc2cc(c3O[C@@H]2O[C@H](CO)[C@@H](O)[C@H](O)[C@H]2O[C@H]2C[C@](C)(N)[C@H](O)[C@H](C)O2)Oc2ccc(cc2Cl)[C@H]1O` [Vancomycin, vancomycin], the MIC in data set [1] (setting [13]) was 2 µg/mL (≈ 1.38 µM). Besides, in data set [1] (Clostridioides difficile, ATCC700057, 24 h), the MIC came out at 2 µg/mL (≈ 1.38 µM). Also, in [2] (ATCC1870, 24 h), the MIC was 2 µg/mL (≈ 1.38 µM). In [3], the MIC came to 4 µg/mL (≈ 2.76 µM). Also, the MIC in data set [4] (ATCC43255, 24 h) amounted to 1 µg/mL (≈ 0.69 µM). The compound also returned an MIC in data set [5] (ATCCBAA1382, 24 h) of 4 µg/mL (≈ 2.76 µM). Further, in [6], the MIC was 1 to 4 µg/mL (≈ 0.69 to 2.76 µM). In addition, the “Effect on S-CFU” value in data set [7] is “did not affect S-CFU”. Further, the “Killing of vegetative cells (T-CFU equaled S-CFU)” value in data set [8] was “effective at killing vegetative cells”. In addition, in data set [9] (mouse, in vivo), the “Median toxin A and B production, day 2” value is reported as “significantly higher”; the “Toxin amounts, day 1” value is given as “similar”; the “Weight loss and clinical scoring” value is “higher”. Moreover, the “Day 15 survival” value in data set [9] (mouse, in vivo, po) is 13.3%. In addition, in data set [10] (mouse, in vivo), the “Clinical scoring and weight loss (disease)” value is “more disease”; the Final survival is on record as 60%; the “Final survival, survivors/total mice” value is recorded as 6/10; the “Mice positive for C. difficile spores (spore shedding), day 15” value is recorded as 100%. For the same compound, in data set [10] (mouse, in vivo), the “Mice succumbed to rCDI” value turned out to be 20%; the Mortality was 40%; the “Positive cage swab rate, day 10” value was determined as 8.3%; the “Positive cage swabs, day 13” value is recorded as 25%. Besides, in [10] (mouse, in vivo), the “Toxin amounts, day 10 and 13” value is given as “higher”. Besides, the Fecal concentration in [11] is 2,000 mg/liter.
Regarding `CCCCC(CC)COC(=O)CC(C(=O)OCC(CC)CCCC)S(=O)(=O)O` (centres unmarked) [docusate], the “Percent germination compared to all other treatments” value in [12] is “highest percent germination”.
